# Experimental data: patent US7084253B2, “Protease-activated receptor PAR4 (ZCHEMR2)” (ZymoGenetics, Inc., priority 1998, dated 2006)
# Substitutions are numbered along the chain they refer to. Entries after “also recorded” stand apart in the source; their conditions may differ. Read-outs that look alike come from different tables or passages of the source. No end group written: not given here.
# T1: PAR4 (Homo sapiens, UniProt Q96RI0, A120T)
# T1 construct: expressed in transfected cells; host or cells: COS-7
# T1 sequence (Q96RI0 18-385 A120T): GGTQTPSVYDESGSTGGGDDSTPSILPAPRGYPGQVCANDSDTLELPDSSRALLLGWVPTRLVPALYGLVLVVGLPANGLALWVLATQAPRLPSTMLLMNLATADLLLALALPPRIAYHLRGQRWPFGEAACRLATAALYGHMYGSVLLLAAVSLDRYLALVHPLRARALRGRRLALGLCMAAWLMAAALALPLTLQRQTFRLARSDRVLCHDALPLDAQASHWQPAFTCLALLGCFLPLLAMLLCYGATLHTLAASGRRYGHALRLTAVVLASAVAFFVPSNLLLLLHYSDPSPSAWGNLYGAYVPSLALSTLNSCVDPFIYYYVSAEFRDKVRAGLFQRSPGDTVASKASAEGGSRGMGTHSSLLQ
# T2: PAR3 (Homo sapiens, UniProt O00254)
# T2 sequence (O00254 22-374): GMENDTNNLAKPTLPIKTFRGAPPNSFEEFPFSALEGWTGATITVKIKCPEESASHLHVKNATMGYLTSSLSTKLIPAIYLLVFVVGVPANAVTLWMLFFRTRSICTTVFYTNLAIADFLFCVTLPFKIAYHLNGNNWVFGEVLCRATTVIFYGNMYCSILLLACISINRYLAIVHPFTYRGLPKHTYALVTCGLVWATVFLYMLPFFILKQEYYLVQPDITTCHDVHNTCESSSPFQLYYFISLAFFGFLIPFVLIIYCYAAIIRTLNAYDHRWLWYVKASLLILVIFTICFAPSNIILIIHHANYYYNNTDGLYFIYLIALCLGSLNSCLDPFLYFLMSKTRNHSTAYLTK
# T3: PAR1 (Homo sapiens, UniProt P25116)
# T3 construct: expressed in transfected cells; COS-7 inferred from the assay of b141
# T3 sequence (P25116 22-425): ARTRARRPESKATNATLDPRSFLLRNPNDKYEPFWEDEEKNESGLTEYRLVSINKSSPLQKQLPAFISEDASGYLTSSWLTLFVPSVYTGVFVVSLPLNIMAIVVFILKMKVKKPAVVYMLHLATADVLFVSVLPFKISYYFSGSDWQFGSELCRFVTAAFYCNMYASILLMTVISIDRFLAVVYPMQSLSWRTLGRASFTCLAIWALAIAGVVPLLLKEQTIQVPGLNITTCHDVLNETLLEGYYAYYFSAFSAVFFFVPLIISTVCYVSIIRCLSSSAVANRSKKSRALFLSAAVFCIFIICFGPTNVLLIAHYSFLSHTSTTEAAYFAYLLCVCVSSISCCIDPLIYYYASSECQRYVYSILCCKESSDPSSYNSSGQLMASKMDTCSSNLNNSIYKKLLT
# T4: PAR4 (R68A) (Homo sapiens, UniProt Q96RI0, A120T/R68A)
# T4 construct: expressed in transfected cells; host or cells: COS cells (inferred from the R47A sentence of the same paragraph)
# T4 sequence (Q96RI0 18-385 R68A/A120T): T1 sequence (Q96RI0 18-385 A120T) with R51A
# T5: PAR4 (R47A) (Homo sapiens, UniProt Q96RI0, A120T/R47A)
# T5 construct: expressed in transfected cells; host or cells: COS cells
# T5 sequence (Q96RI0 18-385 R47A/A120T): T1 sequence (Q96RI0 18-385 A120T) with R30A
# B1: plasmin: arginine/lysine-specific serine protease (protein, UniProt P00747 20-580; P00747 581-810, looked up)
# Plasmin heavy chain A: EPLDDYVNTQGASLFSVTKKQLGAGSIEECAAKCEEDEEFTCRAFQYHSKEQQCVIMAENRKSSIIIRMRDVVLFEKKVYLSECKTGNGKNYRGTMSKTKNGITCQKWSSTSPHRPRFSPATHPSEGLEENYCRNPDNDPQGPWCYTTDPEKRYDYCDILECEEECMHCSGENYDGKISKTMSGLECQAWDSQSPHAHGYIPSKFPNKNLKKNYCRNPDRELRPWCFTTDPNKRWELCDIPRCTTPPPSSGPTYQCLKGTGENYRGNVAVTVSGHTCQHWSAQTPHTHNRTPENFPCKNLDENYCRNPDGKRAPWCHTTNSQVRWEYCKIPSCDSSPVSTEQLAPTAPPELTPVVQDCYHGDGQSYRGTSSTTTTGKKCQSWSSMTPHRHQKTPENYPNAGLTMNYCRNPDADKGPWCFTTDPSVRWEYCNLKKCSGTEASVVAPPPVVLLPDVETPSEEDCMFGNGKGYRGKRATTVTGTPCQDWAAQEPHRHSIFTPETNPRAGLEKNYCRNPDGDVGGPWCYTTNPRKLYDYCDVPQCAAPSFDCGKPQVEPKKCPGR
# Plasmin light chain B: VVGGCVAHPHSWPWQVSLRTRFGMHFCGGTLISPEWVLTAAHCLEKSPRPSSYKVILGAHQEVNLEPHVQEIEVSRLFLEPTRKDIALLKLSSPAVITDKVIPACLPSPNYVVADRTECFITGWGETQGTFGAGLLKEAQLPVIENKVCNRYEFLNGRVQSTELCAGHLAGGTDSCQGDSGGPLVCFEKDKYILQGVTSWGLGCARPNKPGVYVRVSRFVTWIEGVMRNN
# modifications: Plasmin
# notes: arginine/lysine-specific serine protease
# How the values were obtained:
# PAR4 = biological target: T1, PAR4; assay: phosphoinositide hydrolysis assay in COS cells transiently transfected with PAR4 cDNA; format: cell-based; details: for activity against PAR4 (other proteases): concentration not given; for response of PAR4-transfected COS cells (phosphatidylinositol 4,5 diphosphate hydrolysis): protease at 100 nM
# Procedure: (§1) COS cells were transiently transfected with PAR4 cDNA, and examined for responses to thrombin and trypsin. Briefly, for the phosphoinositide hydrolysis assay, COS-7 cells were grown in Dulbecco's modified Eagle's medium (DMEM; Gibco/BRL, Gaithersburg, Md.) with 10% fetal bovine serum (FBS). Cells were plated at 3.5×10^5/35-mm plate one day before transfection. Two μg of DNA were transfected using 12 μl of lipofectAMINE (Gibco/BRL) for 5 h. The cells were incubated overnight in DMEM with 10% FBS, and then split into triplicate 35-mm wells. Forty-eight hours after transfection, the cells were loaded with 2 μCi/ml [^3H]myo-inositol (Amersham, Arlington Heights, Ill.) in serum-free DMEM and incubated overnight at 37° C. Cells were washed and treated with 20 mM LiCl in DMEM, with or without protease or peptide activators added at various concentrations. Cells were then incubated for 2 h at 37° C. and extracted with 750 μl of 20 mM formic acid for 30 min on ice. The inositol mono-, bis-, and trisphosphates were purified through a one ml AG 1-X8 anion-exchange resin (Bio-Rad, Hercules, Calif.) (T. Nanevicz et al., J. Biol. Chem. 271:702–06, 1996), and quantitated by scintillation counting. In each hydrolysis assay, surface expression levels of receptors were determined in triplicate in parallel cultures.
# PAR3 = biological target: T2, PAR3; details: comparison with PAR4; read-out: half-maximal concentration (EC50) for PAR3; cited from earlier work
# PAR1 = biological target: T3, PAR1; assay: thrombin-stimulated phosphoinositide hydrolysis, PAR1 (comparison); format: cell-based; details: comparison with PAR4; read-out: half-maximal concentration (EC50) for PAR1
# Procedure: For comparative purposes, PAR1 protein was prepared. Briefly, the cDNA coding for PAR1 was isolated from a placental cDNA library by PCR. The PAR1 DNA sequence obtained was essentially identical to that previously reported, except for nucleotides 711–712 (CG→GC) and nucleotides 1091–1092 (CG→GC). […] These amino acid changes were confirmed by sequence analysis of the corresponding regions in the genomic DNA coding for PAR1.
# as §1, with “Forty-eight hours after transfection, the cells were loaded with 2 μCi/ml [^3H]myo-inositol (Amersham, Arlington Heights, Ill.) in serum-free DMEM and incubated overnight at 37° C. Cells were washed and treated with 20 mM LiCl in DMEM, with or without protease or peptide activators added at various concentrations. Cells were then incubated for 2 h at 37° C. and extracted with 750 μl of 20 mM formic acid for 30 min on ice.” left out
# PAR4 (R68A) = biological target: T4, PAR4 (R68A); assay: phosphatidylinositol 4,5 diphosphate hydrolysis assay in COS cells expressing PAR4 mutant R68A; format: cell-based; details: Arg 68 to Ala, extracellular amino-terminal region
# Procedure: as §1, with “cultures. […]” for “cultures.”
# PAR4 (R47A) = biological target: T5, PAR4 (R47A); assay: phosphoinositide hydrolysis in COS cells expressing cleavage site mutant PAR4 (R47A); format: cell-based; details: Ala for Arg at residue 47
# Procedure: as §1, with “cultures. […]” for “cultures.”
# [1] = PAR4-transfected COS cells, read-out: half-maximal concentration (EC50), phosphoinositide hydrolysis with PAR4
molecule,measurement,setting,value
urokinase,activity against PAR4 (other proteases),PAR4,little or no activity
thrombin,EC50,PAR4; [1],5 nM
same,"response of PAR4-transfected COS cells (phosphatidylinositol 4,5 diphosphate hydrolysis)",PAR4,did respond
same,EC50,PAR3,~0.2 nM
same,EC50,PAR1,~0.2 nM
same,effect of R68A mutation on PAR4 activation by protease,PAR4 (R68A),no effect
same,response of putative cleavage site mutant PAR4 (R47A) to protease,PAR4 (R47A),failed to respond; also recorded: only activate the wild-type PAR4
SFLLRN [reference compound],activity toward PAR4 of PAR1 activating peptide,PAR4; concentration effective for PAR1 activation,no activity
GYPGQV [GYPGQV],EC50,PAR4,~100000 nM
elastase,activity against PAR4 (other proteases),PAR4,failed to activate
Chymotrypsin,activity against PAR4 (other proteases),PAR4,failed to activate
"trypsin: serine protease, activator of PAR4",EC50,PAR4; [1],5 nM
same,"response of PAR4-transfected COS cells (phosphatidylinositol 4,5 diphosphate hydrolysis)",PAR4,did respond
same,effect of R68A mutation on PAR4 activation by protease,PAR4 (R68A),no effect
same,response of putative cleavage site mutant PAR4 (R47A) to protease,PAR4 (R47A),failed to respond; also recorded: only activate the wild-type PAR4
B1,activity against PAR4 (other proteases),PAR4,little or no activity
